Experimental data: US7943601B2, “2-methylene-20-methyl-19,24,25,26,27-pentanor-vitamin D analogs” (Wisconsin Alumni Research Foundation, priority 2007, dated 2011)
Read-outs that look alike come from different tables or passages of the source.

Tests used:
HL-60 cells = assay: HL-60 differentiation (nitro blue tetrazolium reduction); format: cell-based, human; settings: four days, read-out: EC50, HL-60 cell differentiation
Method: The study drugs were dissolved in ethanol and the concentrations determined using UV spectrophotometry. Serial dilutions were prepared so that a range of drug concentrations could be tested without changing the final concentration of ethanol (≦0.2%) present in the cell cultures.
Human promyelocytic leukemia (HL60) cells were grown in RPMI-1640 medium containing 10% fetal bovine serum. The cells were incubated at 37° C. in the presence of 5% CO2.
HL60 cells were plated at 1.2×10^5 cells/ml. Eighteen hours after plating, cells in duplicate were treated with drug. Four days later, the cells were harvested and a nitro blue tetrazolium reduction assay was performed (Collins et al., 1979; J. Exp. Med. 149:969-974). The percentage of differentiated cells was determined by counting a total of 200 cells and recording the number that contained intracellular black-blue formazan deposits. Verification of differentiation to monocytic cells was determined by measuring phagocytic activity (data not shown).

[1] = tested on: 24-hydroxylase (24Ohase) gene promoter; assay: In vitro transcription assay, luciferase reporter in ROS 17/2.8 (bone) cells; format: cell-based; settings: ROS 17/2.8 cells, sixteen hours after dosing; read-out: EC50, transcriptional activity in bone cells (24-hydroxylase gene)
Method: Transcription activity was measured in ROS 17/2.8 (bone) cells that were stably transfected with a 24-hydroxylase (24Ohase) gene promoter upstream of a luciferase reporter gene (Arbour et al., 1998). Cells were given a range of doses. Sixteen hours after dosing the cells were harvested and luciferase activities were measured using a luminometer.
RLU=relative luciferase units.

vitamin D-deficient rats [2] = assay: Bone calcium mobilization (serum calcium); format: in vivo, rat; settings: rats on low calcium diet (0.02%); for bone calcium mobilization (serum calcium levels): all dose levels tested, four ip doses
Method: (§1) Male, weanling Sprague-Dawley rats were placed on Diet 11 (0.47% Ca) diet+AEK oil for one week followed by Diet 11 (0.02% Ca)+AEK oil for 3 weeks. The rats were then switched to a diet containing 0.47% Ca for one week followed by two weeks on a diet containing 0.02% Ca. Dose administration began during the last week on 0.02% calcium diet. Four consecutive ip doses were given approximately 24 hours apart. Twenty-four hours after the last dose, blood was collected from the severed neck and the concentration of serum calcium determined as a measure of bone calcium mobilization. The first 10 cm of the intestine was also collected for intestinal calcium transport analysis using the everted gut sac method.

vitamin D-deficient rats [3] = assay: Intestinal calcium transport (everted gut sac method); format: in vivo, rat
Method: as §1

[4] = biological target: T1, full-length recombinant rat vitamin D receptor (Rattus norvegicus, UniProt P13053); assay: Vitamin D receptor binding, competition with [3H]-1,25(OH)2D3
T1 construct: Full-length recombinant rat receptor was expressed in E. coli; histidine tag (C); made in house; host or cells: E. coli BL21 (DE3) Codon Plus RIL
T1 sequence (P13053 1-423): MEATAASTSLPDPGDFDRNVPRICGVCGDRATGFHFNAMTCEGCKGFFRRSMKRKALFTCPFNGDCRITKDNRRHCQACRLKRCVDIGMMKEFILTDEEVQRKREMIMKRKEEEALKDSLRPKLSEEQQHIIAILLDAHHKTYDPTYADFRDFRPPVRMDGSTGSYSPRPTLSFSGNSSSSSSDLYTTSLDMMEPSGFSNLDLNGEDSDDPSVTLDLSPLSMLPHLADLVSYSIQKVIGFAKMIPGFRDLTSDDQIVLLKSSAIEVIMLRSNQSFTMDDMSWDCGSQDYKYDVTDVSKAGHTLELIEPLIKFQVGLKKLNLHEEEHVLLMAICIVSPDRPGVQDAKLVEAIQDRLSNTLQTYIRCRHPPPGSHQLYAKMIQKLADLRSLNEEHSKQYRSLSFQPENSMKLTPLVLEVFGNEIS
Method: Full-length recombinant rat receptor was expressed in E. coli BL21 (DE3) Codon Plus RIL cells and purified to homogeneity using two different column chromatography systems. The first system was a nickel affinity resin that utilizes the C-terminal histidine tag on this protein. The protein that was eluted from this resin was further purified using ion exchange chromatography (S-Sepharose Fast Flow). Aliquots of the purified protein were quick frozen in liquid nitrogen and stored at −80° C. until use. For use in binding assays, the protein was diluted in TEDK50 (50 mM Tris, 1.5 mM EDTA, pH7.4, 5 mM DTT, 150 mM KCl) with 0.1% Chaps detergent. The receptor protein and ligand concentration were optimized such that no more than 20% of the added radiolabeled ligand was bound to the receptor.
Radiolabeled and unlabeled ligands were added to 100 mcl of the diluted protein at a final ethanol concentration of ≦10%, mixed and incubated overnight on ice to reach binding equilibrium. The following day, 100 mcl of hydroxylapatite slurry (50%) was added to each tube and mixed at 10-minute intervals for 30 minutes. The hydroxylapaptite was collected by centrifugation and then washed three times with Tris-EDTA buffer (50 mM Tris, 1.5 mM EDTA, pH 7.4) containing 0.5% Titron X-100. […] Total binding was determined from the tubes containing only radiolabeled ligand.

[5] = 260 pmol/day ip for 4 consecutive days, everted gut sac

Row | affinity for the vitamin D receptor relative to 1,25(OH)2D3 ([4]; compared to 1,25(OH)2D3) | Ki ([4]; full-length recombinant rat vitamin D receptor, read-out: Ki, competition with [3H]-1,25(OH)2D3 for binding to VDR) [nM] | EC50 (HL-60 cells; Homo sapiens, 96 h) [nM] | Structure (SMILES) | EC50 (HL-60 cells) [nM] | EC50 [1] [nM] | bone calcium mobilization (serum calcium levels) (vitamin D-deficient rats [2]) | intestinal calcium transport (vitamin D-deficient rats [3]; [5]) | bone calcium mobilization (vitamin D-deficient rats [2]; 260 pmol/day ip for 4 consecutive days) | bone calcium mobilization (vitamin D-deficient rats [2]; 7020 pmol/day ip for 4 consecutive days) | intestinal calcium transport (vitamin D-deficient rats [3]; 7020 pmol/day ip for 4 consecutive days, everted gut sac) | intestinal calcium transport (vitamin D-deficient rats [3]; four consecutive ip doses, doses tested, compared to 1,25(OH)2D3)
1 | – | – | – | C=C1/C(=C\C=C2/CCC[C@]3(C)[C@@H]([C@H](C)CCCC(C)(C)O)CC[C@@H]23)C[C@@H](O)C[C@@H]1O [1,25(OH)2D3, 1α,25-dihydroxyvitamin D3, reference compound] | 4 | 0.2 | increased serum calcium levels at all dosages | promotes a significant increase | – | – | – | –
2 | approximately one-half log less affinity | 0.08 | 10 | C=C1[C@H](O)CC(=C/C=C2\CCC[C@]3(C)[C@@H](C(C)(C)CC)CC[C@@H]23)C[C@H]1O [20DCM, 2-methylene-20-methyl-1α-hydroxy-19,24,25,26,27-pentanor-vitamin D3] | – | 4 | does not have any measurable activity | promotes intestinal calcium transport only slightly | did not result in mobilization of bone calcium | without effect | no significant intestinal calcium transport activity | very little activity
